Patent publication US10646472B2, “Composition comprising a photosensitive compound in a polymeric nanoparticle, and a method of using the composition” (Oregon State University, priority 2015, dated 2020)

Tested on: Chinese Hamster Ovary (CHO-K1) cells
Assay: In vitro micronucleus assay (genotoxicity)
Assay type: cell-based
Conditions: SiNc-NP 90 μg/mL, 24 hours; MMS 50 μg/mL positive control
Experimental: Genotoxicity describes the property of chemical agents that damages the genetic information within a cell causing mutations, which may lead to cancer. An in vitro micronucleus assay was used to determine the genotoxicity of SiNc-NP on Chinese Hamster Ovary (CHO-K1) cells. Cells were treated with SiNc-NP (90 μg/mL) for the experiment group, fresh media for negative control, or methyl methanesulfonate (MMS, 50 μg/mL) for a positive control.
A quantitative analysis was then performed to evaluate the genotoxicity. The analysis counted the number of micronuclei per 1000 cells.

## COS(C)(=O)=O [MMS, methyl methanesulfonate]
  appearance of cell nuclei (fluorescence imaging, DAPI): noticeable numbers of small buds/fragments appeared on or near cell nuclei
